Legend:
Botritis cinerea = experiment: G4. Preventative fungicidal control of Botritis cinerea on leaves of green pepper (Botrci P1), green house; type: in vivo; details: 300 pm active substance, % diseased leaf area, untreated control 90%
Method: 1) Green House The spray solutions were prepared in several steps: The stock solution were prepared: a mixture of acetone and/or dimethylsulfoxide and the wetting agent/emulsifier Wettol, which is based on ethoxylated alkylphenoles, in a relation (volume) solvent-emulsifier of 99 to 1 was added to 25 mg of the compound to give a total of 5 ml. Water was then added to total volume of 100 ml. This stock solution was diluted with the described solvent-emulsifier-water mixture to the given concentration. G4. Preventative fungicidal control of Botritis cinerea on leaves of green pepper (Botrci P1 Young seedlings of green pepper were grown in pots to the 4 to 5 leaf stage. These plants were sprayed to run-off with an aqueous suspension, containing the concentration of active ingredient or their mixture mentioned in the table below. The next day the plants were inoculated with a aqueous biomalt solution containing the spore suspension of Botritis cinerea. Then the plants were immediately transferred to a humid chamber. After 5 days at 22 to 24° C. and a relative humidity close to 100% the extent of fungal attack on the leaves was visually assessed as % diseased leaf area.

Septoria tritici [1] = experiment: G1. Preventative control of leaf blotch on wheat caused by Septoria tritici (Septtr P1), green house; type: in vivo; details: 300 pm active substance, % diseased leaf area, untreated control 90%
Method: The spray solutions were prepared in several steps:
The stock solution were prepared: a mixture of acetone and/or dimethylsulfoxide and the wetting agent/emulsifier Wettol, which is based on ethoxylated alkylphenoles, in a relation (volume) solvent-emulsifier of 99 to 1 was added to 25 mg of the compound to give a total of 5 ml. Water was then added to total volume of 100 ml.
This stock solution was diluted with the described solvent-emulsifier-water mixture to the given concentration.
G1. Preventative Control of Leaf Blotch on Wheat Caused by Septoria tritici (Septtr P1)
Leaves of pot-grown wheat seedling were sprayed to run-off with an aqueous suspension of the active compound or their mixture, prepared as described. The plants were allowed to air-dry. The next day the plants were inoculated with an aqueous spore suspension of Septoria tritici. Then the trial plants were immediately transferred to a humid chamber at 18-22° C. and a relative humidity close to 100%. After 4 days the plants were transferred to a chamber with 18-22° C. and a relative humidity close to 70%. After 4 weeks the extent of fungal attack on the leaves was visually assessed as % diseased leaf area.

Septoria tritici [2] = experiment: M1. Microtest: activity against leaf blotch on wheat caused by Septoria tritici (Septtr), micro titer plate growth; type: cell-based; details: 405 nm, 7 days after inoculation, relative growth vs active compound-free control (100%)
Method: Microtest The active compounds were formulated separately as a stock solution having a concentration of 10000 ppm in dimethyl sulfoxide. M1. Activity Against Leaf Blotch on Wheat Caused by Septoria tritici (Septtr) The stock solutions were mixed according to the ratio, pipetted onto a micro titer plate (MTP) and diluted with water to the stated concentrations. A spore suspension of Septoria tritici in an aqueous biomalt or yeast-bactopeptone-glycerine solution was then added. The plates were placed in a water vapor-saturated chamber at a temperature of 18° C. Using an absorption photometer, the MTPs were measured at 405 nm 7 days after the inoculation. The measured parameters were compared to the growth of the active compound-free control variant (100%) and the fungus-free and active compound-free blank value to determine the relative growth in % of the pathogens in the respective active compounds

C=CCOC(Cn1cncn1)c1ccc(Oc2ccc(Cl)cc2)cc1Cl (stereo not drawn)
Disease (%) at 300 pm Botrci P1 (Botritis cinerea): 30%
Disease (%) at 300 pm Septtr P1 (Septoria tritici [1]): 30%

COC(Cn1cncn1)c1ccc(Oc2ccc(Cl)cc2)cc1Cl (stereo not drawn)
Growth (%) at 0.002 ppm Septtr (Septoria tritici [2]): 72%
Disease (%) at 300 pm Septtr P1 (Septoria tritici [1]): 40%

C#CC(Cn1cncn1)(OC)c1ccc(Oc2ccc(Cl)cc2)cc1Cl (stereo not drawn) [I-1]
Growth (%) at 0.002 ppm Septtr (Septoria tritici [2]): 14%

C=CC(Cn1cncn1)(OC)c1ccc(Oc2ccc(Cl)cc2)cc1Cl (stereo not drawn) [I-7, 1-[2-[2-chloro-4-(4-chlorophenoxy)phenyl]-2-methoxy-but-3-enyl]-1,2,4-triazole]
Disease (%) at 300 pm Septtr P1 (Septoria tritici [1]): 0%

C=CCOC(C=C)(Cn1cncn1)c1ccc(Oc2ccc(Cl)cc2)cc1Cl (stereo not drawn) [I-8]
Disease (%) at 300 pm Septtr P1 (Septoria tritici [1]): 0%

C=CCOC(C#CC)(Cn1cncn1)c1ccc(Oc2ccc(Cl)cc2)cc1Cl (stereo not drawn) [I-12]
Disease (%) at 300 pm Botrci P1 (Botritis cinerea): 0%
Disease (%) at 300 pm Septtr P1 (Septoria tritici [1]): 0%
